Source: publication PMC7860073 (ACS Omega, 2021)
pKd: −log10 of the molar value.

Target: sialidase-1 (Homo sapiens, UniProt Q99519)
Experiment: microscale thermophoresis
Type: binding

| pKd | SMILES |
| --- | --- |
| 5.05 | COc1ccc(C(=O)c2ccc(C)cc2)c(O)c1 [mexenone] |
| 5.67 | COc1cnc(NS(=O)(=O)c2ccc(N)cc2)nc1 [sulfameter] |
